In the NIST ThermoML archive (doi:10.1021/je700123q):
± gives the expanded uncertainty stated by the source. Each block holds one compound with its values, some of them ahead of it.

Assays:
[1] = xn = mol fraction of the nth substance listed; conditions: Liquid
[2] = Liquid; for Critical pressure: Direct measurement; for Critical temperature: Visual observation in an unstirred cell

Critical density ([1]; x2 = 0): 459 ± 5 kg/m3
Structure (SMILES): COC(F)(F)F [trifluoromethoxymethane] + FC(OC(F)(F)F)C(F)(F)F

Structure (SMILES): FC(OC(F)(F)F)C(F)(F)F (stereo not drawn) [1,1,1,2-tetrafluoro-2-(trifluoromethoxy)ethane] + COC(F)(F)C(F)(F)F
Critical density ([1]; x1 = 0.1694): 510 ± 6 kg/m3
Critical density ([1]; x1 = 0.2941): 521 ± 6 kg/m3
Critical density ([1]; x1 = 0.4706): 536 ± 6 kg/m3
Critical density ([1]; x1 = 0.6565): 554 ± 6 kg/m3
Critical density ([1]; x1 = 0.7952): 566 ± 7 kg/m3
Critical density ([1]; x1 = 1): 580 ± 7 kg/m3

Structure (SMILES): COC(F)(F)C(F)(F)F [methyl pentafluoroethyl ether] + FC(OC(F)(F)F)C(F)(F)F
Critical density ([1]; x2 = 0): 491 ± 6 kg/m3

Structure (SMILES): COC(F)(F)C(F)(F)F [methyl pentafluoroethyl ether]
Critical density [2]: 491 ± 6 kg/m3
Critical pressure [2]: 2885 ± 6 kPa
Critical temperature [2]: 406.82 ± 0.06 K

Critical density [2]: 459 ± 5 kg/m3
Critical pressure [2]: 3640 ± 6 kPa
Critical temperature [2]: 377.92 ± 0.06 K
Structure (SMILES): COC(F)(F)F [trifluoromethoxymethane]

Structure (SMILES): FC(OC(F)(F)F)C(F)(F)F (stereo not drawn) [1,1,1,2-tetrafluoro-2-(trifluoromethoxy)ethane] + COC(F)(F)F
Critical density ([1]; x1 = 0.1455): 480 ± 6 kg/m3
Critical density ([1]; x1 = 0.2585): 506 ± 6 kg/m3
Critical density ([1]; x1 = 0.4147): 523 ± 6 kg/m3
Critical density ([1]; x1 = 0.5954): 539 ± 6 kg/m3
Critical density ([1]; x1 = 0.7403): 558 ± 7 kg/m3
Critical density ([1]; x1 = 1): 580 ± 7 kg/m3

Structure (SMILES): FC(OC(F)(F)F)C(F)(F)F (stereo not drawn) [1,1,1,2-tetrafluoro-2-(trifluoromethoxy)ethane]
Critical density [2]: 580 ± 4 kg/m3
Critical pressure [2]: 2621 ± 4 kPa
Critical temperature [2]: 377.26 ± 0.06 K
